Tests used:
DLD-1 [1] = experiment: Induction of apoptosis in human DLD-1 cells assessed as viable cells at 10 uM incubated for 48 hrs by Annexin V staining based flow cytometry (reference value: 81.96 %); type: functional; conditions: read-out: Activity
DLD-1 [2] = experiment: Induction of apoptosis in human DLD-1 cells assessed as late apoptotic cells at 10 uM incubated for 48 hrs by Annexin V staining based flow cytometry (reference value: 6.19 %); type: functional
DLD-1 [3] = experiment: Cytotoxicity against human DLD-1 cells assessed as cell viability incubated for 48 hrs by MTT assay; type: functional, cell-based; conditions: DLD-1, 48 h
COLO 205 = experiment: Cytotoxicity against human COLO 205 cells assessed as cell viability incubated for 48 hrs by MTT assay; type: functional, cell-based; conditions: COLO 205, 48 h
DLD-1 [4] = experiment: Induction of apoptosis in human DLD-1 cells assessed as early apoptotic cells at 10 uM incubated for 48 hrs by Annexin V staining based flow cytometry (reference value: 6.73 %); type: functional
[5] = Cytotoxicity against human CCD-986Sk cells assessed as cell viability incubated for 48 hrs by MTT assay; type: toxicity, cell-based
HT-29 = experiment: Cytotoxicity against human HT-29 cells assessed as cell viability incubated for 48 hrs by MTT assay; type: functional, cell-based; conditions: HT-29, 48 h
DLD-1 [6] = experiment: Induction of apoptosis in human DLD-1 cells assessed as necrotic cells at 10 uM incubated for 48 hrs by Annexin V staining based flow cytometry (reference value: 5.12 %); type: functional
DLD-1 [7] = experiment: Induction of apoptosis in human DLD-1 cells assessed as early apoptotic cells at 5 uM incubated for 48 hrs by Annexin V staining based flow cytometry (reference value: 6.73 %); type: functional
DLD-1 [8] = experiment: Induction of apoptosis in human DLD-1 cells assessed as viable cells at 5 uM incubated for 48 hrs by Annexin V staining based flow cytometry (reference value: 81.96 %); type: functional; conditions: read-out: Activity
DLD-1 [9] = experiment: Induction of apoptosis in human DLD-1 cells assessed as late apoptotic cells at 5 uM incubated for 48 hrs by Annexin V staining based flow cytometry (reference value: 6.19 %); type: functional
DLD-1 [10] = experiment: Induction of apoptosis in human DLD-1 cells assessed as necrotic cells at 5 uM incubated for 48 hrs by Annexin V staining based flow cytometry (reference value: 5.12 %); type: functional

Row | SMILES | viability at 10 µM (DLD-1 [1]) [%] | Activity (DLD-1 [2]) [%] | IC50 (DLD-1 [3]) [µM] | IC50 (COLO 205) [µM] | Activity (DLD-1 [4]) [%] | IC50 at 48 h [5] [µM] | IC50 (HT-29) [µM] | Activity (DLD-1 [6]) [%] | Activity (DLD-1 [7]) [%] | viability at 5 µM (DLD-1 [8]) [%] | Activity (DLD-1 [9]) [%] | Activity (DLD-1 [10]) [%]
1 | NS(=O)(=O)c1ccc(-n2cc(COc3ccc([N+](=O)[O-])cc3C=O)nn2)cc1 | 55 | 8.59 | 11.8 | 132 | 33.56 | > 200 | 9.35 | 2.85 |  |  |  | 
2 | NS(=O)(=O)c1ccc(-n2cc(COc3ccccc3C=O)nn2)cc1 |  |  | 52.1 | 147 |  | 96.3 | 65 |  |  |  |  | 
3 | CC(=O)c1cccc(OCc2cn(-c3ccc(S(N)(=O)=O)cc3)nn2)c1 |  |  | 79.2 | 81.3 |  | > 200 | 128 |  |  |  |  | 
4 | O=c1[nH]cc(F)c(=O)[nH]1 [FLUOROURACIL] |  |  | 5.75 | 90.1 |  | 7.98 | 4.51 |  | 25.5 | 60.9 | 9.91 | 3.73
5 | NS(=O)(=O)c1ccc(-n2cc(COc3ccc(Br)cc3C=O)nn2)cc1 |  |  | 51.1 | > 200 |  | > 200 | > 200 |  |  |  |  | 
6 | NS(=O)(=O)c1ccc(-n2cc(COc3cccc(C=O)c3)nn2)cc1 |  |  | 122 | 40.9 |  | > 200 | > 200 |  |  |  |  | 
7 | CC(=O)c1ccc(OCc2cn(-c3ccc(S(N)(=O)=O)cc3)nn2)cc1 |  |  | 123 | > 200 |  | > 200 | > 200 |  |  |  |  | 
8 | CC(=O)c1ccccc1OCc1cn(-c2ccc(S(N)(=O)=O)cc2)nn1 |  |  | 51 | 160 |  | 139 | 80 |  |  |  |  | 
9 | Cc1ccc(C(C)C)c(OCc2cn(-c3ccc(S(N)(=O)=O)cc3)nn2)c1 |  |  | 35 | > 200 |  | 13.1 | 33.2 |  |  |  |  | 
10 | NS(=O)(=O)c1ccc(-n2cc(COc3ccc(C=O)cc3)nn2)cc1 |  |  | 164 | 75.1 |  | > 200 | > 200 |  |  |  |  | 
11 | CCN(CC)c1ccc(C=O)c(OCc2cn(-c3ccc(S(N)(=O)=O)cc3)nn2)c1 |  |  | 53.4 | 148 |  | 185 | 41.9 |  |  |  |  | 
12 | COc1cccc(C=O)c1OCc1cn(-c2ccc(S(N)(=O)=O)cc2)nn1 |  |  | 180 | > 200 |  | > 200 | > 200 |  |  |  |  | 
13 | Cc1ccc(C(C)C)cc1OCc1cn(-c2ccc(S(N)(=O)=O)cc2)nn1 |  |  | 16.6 | > 200 |  | 12.8 | 35.9 |  |  |  |  | 
14 | NS(=O)(=O)c1ccc(-n2cc(COc3ccc(C(=O)c4ccccc4)cc3)nn2)cc1 |  |  | 19 | > 200 |  | 15.2 | 20.6 |  |  |  |  | 
15 | Cc1ccc(OCc2cn(-c3ccc(S(N)(=O)=O)cc3)nn2)c([N+](=O)[O-])c1 |  |  | 13 | 165 |  | 25.9 | 62.8 |  |  |  |  | 
16 | C=CCc1ccc(OCc2cn(-c3ccc(S(N)(=O)=O)cc3)nn2)c(OC)c1 |  |  | 49.8 | > 200 |  | 134 | 75.3 |  |  |  |  | 
17 | CC(=O)c1cc(Cl)ccc1OCc1cn(-c2ccc(S(N)(=O)=O)cc2)nn1 |  |  | 15.9 | > 200 |  | 51.3 | 187 |  |  |  |  | 
18 | NS(=O)(=O)c1ccc(-n2cc(COc3ccc([N+](=O)[O-])cc3)nn2)cc1 |  |  | 76.8 | 124 |  | 69.8 | 78 |  |  |  |  | 
19 | NS(=O)(=O)c1ccc(-n2cc(COc3ccc4ccccc4c3C=O)nn2)cc1 |  |  | 153 | > 200 |  | > 200 | > 200 |  |  |  |  | 
20 | NS(=O)(=O)c1ccc(-n2cc(COc3ccc(Cl)cc3Cl)nn2)cc1 |  |  | 24.9 | 172 |  | 78.2 | 63.6 |  |  |  |  | 

Source: ChEMBL document CHEMBL6114957, “Exploring anticancer properties of new triazole-linked benzenesulfonamide derivatives against colorectal carcinoma: Synthesis, cytotoxicity, and in silico insights” (Bioorg Med Chem, 2025)
